In general, IC50 refers to the point on the concentration scale where inhibition reaches its midpoint. Low readings indicate inhibition by little substance, high ones a need for much substance. Broadly, the melting point is the temperature, or range, at which the solid turns liquid.

Here are results for six compounds from patent US8329712B2, “Heterocyclic antiviral compounds” (Roche Palo Alto LLC, priority 2010, dated 2012).

One data set relates to HCV. The following applies: cited from earlier work.
The target in data set [1] is T1, HCV polymerase (NS5B570n-Con1) (Hepatitis C virus genotype 1b, UniProt Q9WMX2).
T1 construct: contains a 21 amino acid deletion at the C-terminus relative to the full-length HCV polymerase; 6-histidine (N); made in house; host or cells: E. coli strain BL21(DE) pLysS, plasmid pET 17b
The experiment in a line: HCV NS5B RNA polymerase activity assay (incorporation of radiolabeled UTP). It counts as biochemical, HCV Con1 strain. As for the experimental part:
The enzymatic activity of HCV polymerase (NS5B570n-Con1) was measured as the incorporation of radiolabeled nucleotide monophosphates into acid insoluble RNA products. Unincorporated radiolabeled substrate was removed by filtration and scintillant was added to the washed and dried filter plate containing radiolabeled RNA product. The amount of RNA product generated by NS5B570-Con1 at the end of the reaction was directly proportional to the amount of light emitted by the scintillant.
The N-terminal 6-histidine tagged HCV polymerase, derived from HCV Con1 strain, genotype 1b (NS5B570n-Con1) contains a 21 amino acid deletion at the C-terminus relative to the full-length HCV polymerase and was purified from E. coli strain BL21(DE) pLysS. The construct, containing the coding sequence of HCV NS5B Con1 (GenBank accession number AJ242654) was inserted into the plasmid construct pET 17b, downstream of a T7 promoter expression cassette and transformed into E. coli. A single colony was grown overnight as a starter culture and later used inoculate 10 L of LB media supplemented with 100 μg/mL ampicillin at 37° C. Protein expression was induced by the addition of 0.25 mM isopropyl-β-D-thiogalactopyranoside (IPTG) when optical density at […] of the culture was between 0.6 and 0.8 and cells were harvested after 16 to 18 h at 30° C. NS5B570n-Con1 was purified to homogeneity using a three-step protocol including subsequent column chromatography on Ni-NTA, SP-Sepharose HP and Superdex 75 resins.
Each 50 μL enzymatic reaction contained 20 nM RNA template derived from the complementary sequence of the Internal Ribosome Entry Site (cIRES), 20 nM NS5B570n-Con1 enzyme, 0.5 μCi of tritiated UTP (Perkin Elmer catalog no. TRK-412; specific activity: 30 to 60 Ci/mmol; stock solution concentration from 7.5×10^−5 M to 20.6×10^−6 M), 1 μM each ATP, CTP, and GTP, 40 mM Tris-HCl pH 8.0, 40 mM NaCl, 4 mM DTT (dithiothreitol), 4 mM MgC12, and 5 μL of compound serial diluted in DMSO. Reaction mixtures were assembled in 96-well filter plates (cat #MADVNOB, Millipore Co.) and incubated for 2 h at 30° C. Reactions were stopped by addition of 10% final (v/v) trichloroacetic acid and incubated for 40 min at 4° C. Reactions were filtered, washed with 8 reaction volumes of 10% (v/v) trichloroacetic acetic acid, 4 reaction volumes of 70% (v/v) ethanol, air dried, and 25 μL of scintillant (Microscint 20, Perkin-Elmer) was added to each reaction well.
The amount of light emitted from the scintillant was converted to counts per minute (CPM) on a Topcount® plate reader (Perkin-Elmer, Energy Range: Low, Efficiency Mode Normal, Count Time: 1 min, Background Subtract: none, Cross talk reduction: Off).
Data was analyzed in Excel® (Microsoft) and ActivityBase® (Idbs®). The reaction in the absence of enzyme was used to determine the background signal, which was subtracted from the enzymatic reactions. Positive control reactions were performed in the absence of compound, from which the background corrected activity was set as 100% polymerase activity. All data was expressed as a percentage of the positive control. The compound concentration at which the enzyme-catalyzed rate of RNA synthesis was reduced by 50% (IC50) was calculated by fitting equation (i) to the data where“Y” […]

A further data set can be described thus: in vitro. The following applies: human.
Data set [2] concerns HCV replicon cells (2209-23), genotype 1b replicon in Huh7 cells. Put plainly: HCV replicon assay (Renilla luciferase reporter). The class given is cell-based, HCV genotype 1b. Conditions: Hepatitis C virus, Huh-7, 72 h; 2209-23 cells, three days incubation. (In general: In antiviral work, replicon cells carry a viral genome segment that copies itself.)

Turning to `NC(=O)c1ncn([C@@H]2O[C@H](CO)[C@@H](O)[C@H]2O)n1` [ribavirin, 1-((2R,3R,4S,5R)-3,4-Dihydroxy-5-hydroxymethyl-tetrahydro-furan-2-yl)-1H-[1,2,4]triazole-3-carboxylic acid amide], the “patients with serum amino transferase levels reduced to normal” value with HCV (monotherapy) is 40%. The “effect on serum levels of HCV-RNA” value in the data set with HCV (sole treatment / monotherapy) is “does not lower serum levels of HCV-RNA”. For the compound `Cc1ccc(-c2nc(C(C)(C)C)nc3cc(-c4ccc(NS(C)(=O)=O)cc4)cnc23)c(=O)[nH]1` [Compound I-6], half-maximal inhibition in data set [1] (IC50) required 9.7 nM.

With `CC(C)(C)c1nc(-n2ccc(=O)[nH]c2=O)c2ncc(-c3ccc(NS(C)(=O)=O)cc3)cc2n1` [Compound I-5, N-{4-[2-tert-Butyl-4-(2,4-dioxo-3,4-dihydro-2H-pyrimidin-1-yl)-pyrido[3,2-d]pyrimidin-7-yl]-phenyl}-methanesulfonamide], in data set [1], half-maximal inhibition (IC50) was put at 5.5 nM.

`CC(C)(C)c1nc(-n2ccc(=O)[nH]c2=O)c2ccc(-c3ccc(NS(C)(=O)=O)cc3)cc2n1` [Compound I-3, N-{4-[2-tert-Butyl-4-(2,4-dioxo-3,4-dihydro-2H-pyrimidin-1-yl)-quinazolin-7-yl]-phenyl}-methanesulfonamide] displayed a melting point of 186 to 190 °C. For the same compound, the CC50 at 3 days in the data set “in vitro” amounted to 44000 nM. In data set [2], this compound displayed an IC50 of 17 nM. The compound also gave an IC50 in data set [1] of less than 0.1 nM. Compound `CC(C)(C)c1nc(-c2ccc(O)[nH]c2=O)c2ccc(-c3ccc(NS(C)(=O)=O)cc3)cc2n1` [Compound I-4, N-{4-[2-tert-Butyl-4-(6-hydroxy-2-oxo-1,2-dihydro-pyridin-3-yl)-quinazolin-7-yl]-phenyl}-methanesulfonamide] yielded an IC50 in data set [1] of 2.4 nM. Compound `CC(C)(C)c1nc(-c2ccc(O)[nH]c2=O)c2ccc(N3CC[C@H](CNS(C)(=O)=O)C3)cc2n1` [Compound I-2] had a melting point of 205.8 to 207.9 °C. Also, half-maximal inhibition in data set [1] (IC50) required 3.5 nM.
